# Assay results taken from article PMC10969810, “Green Extraction Strategy Using Bio-Based Aqueous Biphasic Systems for Polyphenol Valorization from Grape By-Product” (Foods, 2024).
# Several values for one entry are separate records, joined by “and”; a condition that tells them apart may be missing. Equal entries are not always repeated. Where two headings read alike, the source gives them in different places.
# Tests used:
# [1] = parameters: method as in doi:10.1016/j.afres.2023.100381; conditions: ABSs of [Ch]Cl and different surfactants, rice husk hydrolysate; cited from earlier work
# [2] = Partition of polyphenols in cholinium salt/IL + PPG400 + water aqueous biphasic systems; assay type: physicochemical; conditions: for increase in RE by increasing the TLL: TLL 56.88 to 101.43, polyphenol content 2.5 g per L of ABS, pH~6, 25 °C
# Experimental: Considering previously established phase diagrams of ABSs, ternary mixtures within the biphasic region were prepared, containing 20 wt% salt/IL + 50 wt% PPG400 + 30 wt% of H2O +10 μL of polyphenol solution. The polyphenol solutions were prepared in 80 vol% ethanol, with concentrations of circa 2500 mg L^−1 for each compound. […] The selected compositions of ABSs and corresponding TLLs are given in the Supplementary Materials.
# Each ABS was prepared in 1.5 mL microcentrifuge tubes by adding the appropriate amount of constituents to achieve a final weight of 1 g. All systems were vigorously agitated (Reax Top, Heidolph, Schwabach, Germany) and left for 2 h at 25 °C in a thermo-shaker incubator (ALEMADR-MSC, Colo Lab Experts, Novo Mesto, Slovenia). Following 5 min of centrifugation at 5000× g rpm (LLG-uniCFUGE 5, Meckenheim, Germany), the phases were carefully separated, and their weights and volumes were measured. After appropriate dilution and filtration using syringe filters (0.45 μm), the contents of polyphenols in the phases were quantified by high-performance liquid chromatography (HPLC), as described in Section 2.5.
# The logarithmic distribution coefficients (logD) of the polyphenols were calculated as the ratio of the equilibrium concentration of each polyphenol in the PPG400-rich and IL/salt-rich phases, as follows:(1) logD=log [Polyphenol]PPG400-phase/[Polyphenol]IL/salt-phase.
# The selectivities (S) with respect to gallic acid were calculated according to the following equation:(4) SGA/Polyphenol=DGA/DPolyphenol where the subscript “Polyphenol” stands for resveratrol or quercetin.
# The quantification of polyphenols was carried out using HPLC (Knauer, Berlin, Germany), which includes a DAD detector and an Ascentis C18 (SUPELCO), Darmstadt, Germany, column with a particle size of 5 µm and dimensions 250 mm × 4.6 mm. Chromatographic separation of the target polyphenols occurred at a constant flow rate of 1 mL min^−1, the injection volume for all samples was 20 μL, and the temperature of the column was fixed at 45 °C, with 10% acetonitrile (v/v) as mobile phase A and pure acetonitrile as mobile phase B. For partition studies, isocratic conditions were used for the determination of each compound (A:B = 60:40). Quantification in a complex sample after extraction from the real sample was achieved using a gradient mode, varying the mobile phase from 100% A to 100% B for 30 min.
# [3] = Solubility determination (UV spectroscopy of saturated solutions); assay type: physicochemical; conditions: thermodynamic from solid
# Experimental: Quantification was carried out using calibration curves (R^2 > 0.99 in all cases) for each analyzed compound within the concentration range of 2.5 to 50 mg L^-1.
# [4] = cited from earlier work
# [5] = Recovery of polyphenols from grape stem extract with [Ch][DHP]/PPG400 ABS; assay type: physicochemical; conditions: 40 wt% PPG400 + 25 wt% [Ch][DHP], 25 °C, pH ~6, TLL ~101, ~5 mg extract per g ABS
# Experimental: Grapes collected from Quinta das Carvalhas, Pinhao (Regiao Demarcada do Douro, Portugal), were first separated into stems, seeds, and skins. All samples were freeze-dried, ground into powder, and stored in a desiccator. Two grams of the grape stem powder was mixed with 100 mL of a water:ethanol mixture (1:1, v:v), followed by stirring for 2 h and sonication for 5 min. The sample was centrifuged at 10,000× g rpm for 15 min, and the pellet was re-extracted. The supernatant was collected, and the solvent was evaporated under vacuum using a rotary evaporator at 40 °C. […]
# The quantification of polyphenols was carried out using HPLC (Knauer, Berlin, Germany), which includes a DAD detector and an Ascentis C18 (SUPELCO), Darmstadt, Germany, column with a particle size of 5 µm and dimensions 250 mm × 4.6 mm. […] Quantification in a complex sample after extraction from the real sample was achieved using a gradient mode, varying the mobile phase from 100% A to 100% B for 30 min.
# Guided by the results from the optimization studies, polyphenols were extracted from grape stem extract with specific conditions in mind based on previously determined extraction parameters. […] The RE for GA towards the [Ch][DHP] phase was 78.64%, and quercetin was not detected in the grape stem extract. […]
# [6] = parameters: method as in doi:10.2478/s11696-013-0417-6, doi:10.1016/0016-7037(88)90089-0; conditions: cited from earlier work
# [7] = [Ch][DHP]/PPG400 ABS, tie line ~101, lowest phase volume ratio (0.20), 25 °C
compound,measurement,setting,value
COc1cc(/C=C/C(=O)O)ccc1O [ferulic acid],yield in the surfactant-rich phase,[1],over 90%
"O=c1c(O)c(-c2ccc(O)c(O)c2)oc2cc(O)cc(O)c12 [QC, quercetin]",selectivity SGA/QC (DGA/DQC),"[2]; [Ch][DHP]-based ABS, 25 °C",> 1000
same,increase in RE by increasing the TLL,[2]; [Ch][DHP]/PPG400 ABS,~9%
same,recovery efficiency (RE) toward the PPG-rich phase,[2]; [7],55.70 ± 2.13%
O=C(O)/C=C/c1ccc(O)cc1 [p-coumaric acid],yield in the surfactant-rich phase,[1],over 90%
"Oc1ccc(/C=C/c2cc(O)cc(O)c2)cc1 [RSV, trans-resveratrol]",solubility at 12 h,"[3]; PPG400/water 80:20 (v/v), aqueous with cosolvent or surfactant or cyclodextrin, PPG400/water 80:20, 25 °C, not the maximum solubility, read-out: solubility in PPG/water system matching the PPG phase",≥ 100 mg/mL
same,solubility in pure water,[4],0.039 mg/mL
same,increase in RE by increasing the TLL,[2]; [Ch][DHP]/PPG400 ABS,circa 7%
"O=C(O)c1cc(O)c(O)c(O)c1 [GA, gallic acid]",solubility at 12 h,"[3]; [Ch][DHP]/water 50:50, aqueous with cosolvent or surfactant or cyclodextrin, around 50 wt% [Ch][DHP] in water, 25 °C, read-out: maximal solubility in the [Ch][DHP]-rich phase",140 mg/mL
same,recovery efficiency from grape stem extract towards the [Ch][DHP] phase,[5],78.64%
same,recovery efficiency from grape stem extract towards the [Ch][DHP] phase,[5]; listed as gallic acid,78%
same,solubility in water,[4]; no reference and method not given,14.38 mg/mL
same,degradation,[6]; at 100 °C,30%
same,temperature from which degradation begins,[6],60 °C
same,recovery efficiency (RE) toward the IL-rich phase,"[2]; [Ch][DHP]-based ABS, 20 wt% IL + 50 wt% PPG400, TLL 101.43, volume ratio 0.50, 25 °C",92.31 ± 2.31% and 90%
same,increase in RE by increasing the TLL,[2]; [Ch][DHP]/PPG400 ABS,~2%
same,recovery efficiency (RE) toward the IL-rich phase,[2]; [7],88.7 ± 3.91%
